Experimental data from US20080096894A1, “Anti-Bacterial Compounds” (ASTON UNIVERSITY, priority 2005, published 2008).
Converted amounts (≈) assume the structure as drawn. Read-outs that look alike come from different tables or passages of the source.

Tests used:
Test in all cases: MIC, agar dilution, multipoint inoculator
S. aureus = format: cell-based, Staphylococcus aureus; conditions: Staphylococcus aureus
In short: (§1)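 Each strain was spot-inoculated (10^4 CFU) onto Mueller Hinton agar plates carrying compound dilutions, using a multipoint device, and the MIC was recorded.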

MRSA = format: cell-based, methicillin-resistant Staphylococcus aureus
In short: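 Agar dilution MIC on Mueller Hinton agar, multipoint inoculator delivering 10^4 colony forming units per spot. MRSA values are ranges across ten clinical MRSA strains; S. aureus NCTC 6571 as reference strain.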

E. faecium = format: cell-based, Enterococcus faecium; conditions: Enterococcus faecium
In short: as §1

S. epidemisis = format: cell-based, Staphylococcus epidermidis; conditions: Staphylococcus epidermidis
In short: as §1

B. bronchiseptica = format: cell-based; conditions: Bordetella bronchiseptica, NCTC8344, 18 h
In short: as §1

E. faecalis = format: cell-based
In short: as §1

S. aboni = format: cell-based; conditions: S. aboni NCTC 6017; upper value of MIC reading
In short: as §1

S. haemolyticus = format: cell-based; conditions: Staphylococcus haemolyticus, 18 h
In short: as §1

S. maltophilia = format: cell-based; conditions: Stenotrophomonas maltophilia, NCTC10257, 18 h
In short: as §1

E. coli = format: cell-based, Escherichia coli; conditions: Escherichia coli, 18 h, upper value of MIC reading
Procedure: (§2) This activity was measured using a multipoint inoculator method as follows. The MIC for each compound was measured using an agar dilution method (Onda, H., et al., Int. J. Antimicrob. Agents. 18, 263 (2001)) (Mueller Hinton agar) by means of a multipoint inoculator delivering 10^4 colony forming units per spot.

K. pneumoniae = format: cell-based, Klebsiella pneumoniae; conditions: Klebsiella pneumoniae, 18 h
Procedure: as §2

S. marcesens = format: cell-based, Serratia marcescens; conditions: Serratia marcescens, 18 h
Procedure: as §2

P. auriginosa = format: cell-based, Pseudomonas aeruginosa; conditions: Pseudomonas aeruginosa, NCTC6749, 18 h; P. auriginosa NCTC 6749; upper value of MIC reading; read-out: MIC
Procedure: as §2

E. cloacae = format: cell-based, Enterobacter cloacae; conditions: Enterobacter cloacae, NCTC11582, 18 h
Procedure: as §2

[1] = 18 h, S. aureus Cowan 1, upper value of MIC reading, read-out: MIC
[2] = NCTC6571, 18 h, S. aureus NCTC 6571, upper value of MIC reading, read-out: MIC
[3] = NCTC10788, 18 h, S. aureus NCTC 10788, upper value of MIC reading, read-out: MIC
[4] = Staphylococcus aureus, 18 h, MRSA Isolate 1, upper value of MIC reading, read-out: MIC
[5] = Staphylococcus aureus, 18 h, MRSA Isolate 2, upper value of MIC reading, read-out: MIC
[6] = Staphylococcus aureus, 18 h, MRSA Isolate 3, upper value of MIC reading, read-out: MIC
[7] = Staphylococcus aureus, 18 h, MRSA Isolate 4, upper value of MIC reading, read-out: MIC
[8] = Staphylococcus aureus, 18 h, MRSA Isolate 5, upper value of MIC reading, read-out: MIC
[9] = Staphylococcus aureus, 18 h, MRSA Isolate 6, upper value of MIC reading, read-out: MIC
[10] = Staphylococcus aureus, 18 h, MRSA Isolate 7, upper value of MIC reading, read-out: MIC
[11] = Staphylococcus aureus, 18 h, MRSA Isolate 8, upper value of MIC reading, read-out: MIC
[12] = Staphylococcus aureus, 18 h, MRSA Isolate 9, upper value of MIC reading, read-out: MIC
[13] = Staphylococcus aureus, 18 h, MRSA Isolate 10, upper value of MIC reading, read-out: MIC
[14] = 18 h, E. faecium ACTCC 10541, upper value of MIC reading, read-out: MIC
[15] = NCTC7171, 18 h, E. faecium NCTC 7171, upper value of MIC reading, read-out: MIC
[16] = 18 h, S. epidemisis Isolate 1, upper value of MIC reading, read-out: MIC
[17] = NCTC11047, 18 h, S. epidemisis NCTC 11047, upper value of MIC reading, read-out: MIC
[18] = B. bronchiseptica NCTC 8344, upper value of MIC reading, read-out: MIC
[19] = Enterococcus faecalis, 18 h, E. faecalis EBH1, upper value of MIC reading, read-out: MIC
[20] = Enterococcus faecalis, 18 h, E. faecalis Isolate 1, upper value of MIC reading, read-out: MIC
[21] = Enterococcus faecalis, 18 h, E. faecalis Isolate 2, upper value of MIC reading, read-out: MIC
[22] = Enterococcus faecalis, 18 h, E. faecalis Isolate 4, upper value of MIC reading, read-out: MIC
[23] = Enterococcus faecalis, 18 h, E. faecalis Isolate 5, upper value of MIC reading, read-out: MIC
[24] = Enterococcus faecalis, NCTC5957, 18 h, E. faecalis NCTC 5957, upper value of MIC reading, read-out: MIC
[25] = S. haemolyticus Isolate 1, upper value of MIC reading, read-out: MIC
[26] = S. maltophilia NCTC 10257, upper value of MIC reading, read-out: MIC
[27] = K. pneumoniae 327, upper value of MIC reading, read-out: MIC
[28] = S. marcesens 4444, upper value of MIC reading, read-out: MIC
[29] = E. cloacae NCTC 11582, upper value of MIC reading, read-out: MIC

CC1(C)S[C@@H]2[C@H](NC(=O)[C@H](N)c3ccccc3)C(=O)N2[C@H]1C(=O)O [Amp., Ampicillin, reference compound]
MIC (S. aureus; [1]): 0.05 µg/mL (≈ 0.143 µM)
MIC (S. aureus; [2]): 0.05 µg/mL (≈ 0.143 µM)
MIC (S. aureus; [3]): 0.05 µg/mL (≈ 0.143 µM)
MIC (MRSA; [4]): 0.12 µg/mL (≈ 0.343 µM)
MIC (MRSA; [5]): 8 µg/mL (≈ 22.9 µM)
MIC (MRSA; [6]): 8 µg/mL (≈ 22.9 µM)
MIC (MRSA; [7]): 8 µg/mL (≈ 22.9 µM)
MIC (MRSA; [8]): 8 µg/mL (≈ 22.9 µM)
MIC (MRSA; [9]): 8 µg/mL (≈ 22.9 µM)
MIC (MRSA; [10]): 8 µg/mL (≈ 22.9 µM)
MIC (MRSA; [11]): 8 µg/mL (≈ 22.9 µM)
MIC (MRSA; [12]): 8 µg/mL (≈ 22.9 µM)
MIC (MRSA; [13]): 8 µg/mL (≈ 22.9 µM)
MIC (E. faecium; [14]): 2 µg/mL (≈ 5.72 µM)
MIC (E. faecium; [15]): 1 µg/mL (≈ 2.86 µM)
MIC (S. epidemisis; [16]): 8 µg/mL (≈ 22.9 µM)
MIC (S. epidemisis; [17]): 4 µg/mL (≈ 11.4 µM)
MIC (B. bronchiseptica; [18]): 1 µg/mL (≈ 2.86 µM)
MIC (E. faecalis; [19]): 0.05 µg/mL (≈ 0.143 µM)
MIC (E. faecalis; [20]): 0.05 µg/mL (≈ 0.143 µM)
MIC (E. faecalis; [21]): 0.05 µg/mL (≈ 0.143 µM)
MIC (E. faecalis; Enterococcus faecalis, 18 h, E. faecalis Isolate 3, upper value of MIC reading, read-out: MIC): 0.05 µg/mL (≈ 0.143 µM)
MIC (E. faecalis; [22]): 2 µg/mL (≈ 5.72 µM)
MIC (E. faecalis; [23]): 2 µg/mL (≈ 5.72 µM)
MIC (E. faecalis; [24]): 2 µg/mL (≈ 5.72 µM)
MIC (S. aboni): 0.05 µg/mL (≈ 0.143 µM)
MIC (S. haemolyticus; [25]): 1 µg/mL (≈ 2.86 µM)
MIC (S. maltophilia; [26]): 16 µg/mL (≈ 45.8 µM)
MIC (E. coli; E. coli W3110R+): > 16 µg/mL
MIC (E. coli; E. coli W3110R−): 1 µg/mL (≈ 2.86 µM)
MIC (K. pneumoniae; [27]): > 16 µg/mL
MIC (S. marcesens; [28]): 8 µg/mL (≈ 22.9 µM)
MIC (P. auriginosa): 16 µg/mL (≈ 45.8 µM)
MIC (E. cloacae; [29]): 16 µg/mL (≈ 45.8 µM)

CN(C)c1ccc(/C=N/N=C(\N)c2ccncc2)c2ccccc12 [Compound 4PYdx, N^1-[(4-dimethylamino)-1-naphthylidene]-pyridine-4-carboxamidrazone]
MIC (S. aureus; 18 h): 128 µg/mL (≈ 403 µM)
MIC (S. aureus; NCTC6571, 18 h): 128 µg/mL (≈ 403 µM)
MIC (S. aureus; NCTC10788, 18 h): 128 µg/mL (≈ 403 µM)
MIC (MRSA; MRSA Isolate 1, upper value of MIC reading, in µg/mL): 128
MIC (MRSA; MRSA Isolate 2, upper value of MIC reading, in µg/mL): 128
MIC (MRSA; MRSA Isolate 3, upper value of MIC reading, in µg/mL): 128
MIC (MRSA; MRSA Isolate 4, upper value of MIC reading, in µg/mL): 128
MIC (MRSA; MRSA Isolate 5, upper value of MIC reading, in µg/mL): 128
MIC (MRSA; MRSA Isolate 6, upper value of MIC reading, in µg/mL): 128
MIC (MRSA; MRSA Isolate 8, upper value of MIC reading, in µg/mL): 128
MIC (MRSA; MRSA Isolate 9, upper value of MIC reading, in µg/mL): 128
MIC (MRSA; MRSA Isolate 10, upper value of MIC reading, in µg/mL): 128
MIC (MRSA; Staphylococcus aureus, 18 h): 128 µg/mL (≈ 403 µM)
MIC (MRSA; Staphylococcus aureus, MRSA, 18 h, read-out: MRSA MIC range): 64 to 128 µg/mL (≈ 202 to 403 µM)
MIC (E. faecium; 18 h): 256 µg/mL (≈ 807 µM)
MIC (E. faecium; NCTC7171, 18 h): 256 µg/mL (≈ 807 µM)
MIC (S. epidemisis; 18 h): 128 µg/mL (≈ 403 µM)
MIC (S. epidemisis; [17]): 64 µg/mL (≈ 202 µM)
MIC (B. bronchiseptica): 256 µg/mL (≈ 807 µM)
MIC (E. faecalis; E. faecalis EBH1, upper value of MIC reading): 256 µg/mL (≈ 807 µM)
MIC (E. faecalis; E. faecalis Isolate 1, upper value of MIC reading): 256 µg/mL (≈ 807 µM)
MIC (E. faecalis; E. faecalis Isolate 2, upper value of MIC reading): 256 µg/mL (≈ 807 µM)
MIC (E. faecalis; E. faecalis Isolate 4, upper value of MIC reading): 256 µg/mL (≈ 807 µM)
MIC (E. faecalis; Enterococcus faecalis, 18 h): 256 µg/mL (≈ 807 µM)
MIC (E. faecalis; Enterococcus faecalis, NCTC5957, 18 h): 256 µg/mL (≈ 807 µM)
MIC (S. aboni): 32 µg/mL (≈ 101 µM)
MIC (S. haemolyticus): 256 µg/mL (≈ 807 µM)
MIC (S. maltophilia): 128 µg/mL (≈ 403 µM)
MIC (E. coli; E. coli W3110R+): 128 µg/mL (≈ 403 µM)
MIC (E. coli; E. coli W3110R−): 256 µg/mL (≈ 807 µM)
MIC (K. pneumoniae): 256 µg/mL (≈ 807 µM)
MIC (S. marcesens): 256 µg/mL (≈ 807 µM)
MIC (P. auriginosa): 32 µg/mL (≈ 101 µM)
MIC (E. cloacae): 256 µg/mL (≈ 807 µM)

Cc1onc(-c2c(F)cccc2Cl)c1C(=O)N[C@@H]1C(=O)N2[C@@H]1SC(C)(C)[C@@H]2C(=O)O [Fluclox., Flucloxacillin, reference compound]
MIC (S. aureus; [1]): 0.05 µg/mL (≈ 0.11 µM)
MIC (S. aureus; [2]): 0.05 µg/mL (≈ 0.11 µM)
MIC (S. aureus; [3]): 0.05 µg/mL (≈ 0.11 µM)
MIC (MRSA; [4]): 0.05 µg/mL (≈ 0.11 µM)
MIC (MRSA; [5]): 8 µg/mL (≈ 17.6 µM)
MIC (MRSA; [6]): 8 µg/mL (≈ 17.6 µM)
MIC (MRSA; [7]): 16 µg/mL (≈ 35.3 µM)
MIC (MRSA; [8]): 0.05 µg/mL (≈ 0.11 µM)
MIC (MRSA; [9]): 0.25 µg/mL (≈ 0.551 µM)
MIC (MRSA; [10]): 0.25 µg/mL (≈ 0.551 µM)
MIC (MRSA; [11]): 8 µg/mL (≈ 17.6 µM)
MIC (MRSA; [12]): 8 µg/mL (≈ 17.6 µM)
MIC (MRSA; [13]): 0.25 µg/mL (≈ 0.551 µM)
MIC (E. faecium; [14]): 1 µg/mL (≈ 2.2 µM)
MIC (E. faecium; [15]): 1 µg/mL (≈ 2.2 µM)
MIC (S. epidemisis; [16]): > 16 µg/mL
MIC (S. epidemisis; [17]): 0.05 µg/mL (≈ 0.11 µM)
MIC (B. bronchiseptica; [18]): > 16 µg/mL
MIC (E. faecalis; [19]): 0.5 µg/mL (≈ 1.1 µM)
MIC (E. faecalis; [20]): 1 µg/mL (≈ 2.2 µM)
MIC (E. faecalis; [21]): 0.5 µg/mL (≈ 1.1 µM)
MIC (E. faecalis; [22]): 1 µg/mL (≈ 2.2 µM)
MIC (E. faecalis; [23]): 1 µg/mL (≈ 2.2 µM)
MIC (E. faecalis; [24]): 1 µg/mL (≈ 2.2 µM)
MIC (S. aboni): 0.05 µg/mL (≈ 0.11 µM)
MIC (S. haemolyticus; [25]): 0.5 µg/mL (≈ 1.1 µM)
MIC (S. maltophilia; [26]): 16 µg/mL (≈ 35.3 µM)
MIC (E. coli; E. coli W3110R+): > 16 µg/mL
MIC (E. coli; E. coli W3110R−): > 16 µg/mL
MIC (K. pneumoniae; [27]): > 16 µg/mL
MIC (S. marcesens; [28]): > 16 µg/mL
MIC (P. auriginosa): 8 µg/mL (≈ 17.6 µM)
MIC (E. cloacae; [29]): > 16 µg/mL
